From patent EP0937460A2, “Use of an antidiarrheal for the manufacture of a medicament for the treatment of inflammatory conditions” (Adolor Corporation, priority 1994, dated 1995) come the findings set out here.

The inhibition is the share of the control response that was lost under treatment.

Counter-ions that a name gives are not always drawn. Like-named read-outs stand apart in the source and are kept apart here. A value given as a limit tells only on which side of the number the result lay.

Data set [1] relates to TNF production. Briefly: Inhibition of LPS-stimulated TNF production in the human monocytic cell line THP-1 (ELISA). The class given is cell-based. As to conditions: for activity at 10 µM / inhibition at 10 µM: Homo sapiens; for activity at 10 µM: read-out: TNF LEVEL % Control (LPS alone), Ave. ± S.D. As for the experimental part: Cultures were maintained by the addition of fresh growth medium to a T-75 or T-150 flask of cells in suspension, or by pelleting the cells and re-suspending them in the appropriate volume of fresh medium. Maximum cell density was 1.0 x 10^6 cells per mL and cultures were seeded at a minimum density of 0.2 x 10^6 cells per ml.
(§1) THP-1 cells were plated into 24-well plates at a density of 1.0 x 10^6 cells per mL in 0.5 mL medium per well. […] For measurement of IL-1α and IL-1β production, THP-1 cells were incubated with 500 ng/mL or 50 ng/mL LPS and incubated for 16 hours. Levels of secreted cytokine were measured in cell supernatants as for TNF. Cell-associated species were measured in cell lysates which were prepared by repetitive freeze-thawing of cells. For in vitro screening, drugs at 10 µM concentration were co-administered with LPS. […] Drug effects on cell viability were assessed by the MTT assay. […] Water-soluble drugs were dissolved in aqueous solutions such as RPMI or deionized H20. The final concentration of DMSO in the incubation medium was at or below 0.01% and that of ethanol was at or below 0. 1%. The effect on cell viability was evaluated by the MTT assay.
For orientation: In an ELISA, binding on a coated surface is turned into a signal by an enzyme label.

In data set [2] the test system is TNF production. Briefly: Inhibition of LPS-stimulated TNF production in the mouse macrophage line RAW 264.7 (ELISA). The format is cell-based. As to conditions: for activity at 10 µM: RAW264.7, 6 h, read-out: TNF LEVEL % Control (LPS alone), Ave. ± S.D.; for effectiveness against LPS-stimulated TNF production (in words): drug 10 µM. As for the experimental part:
Cells were passaged at confluence by scraping and routinely plated at a density of 0.25 x 10^6 and 0.5 x 10^6 cells per T-75 and T-150, respectively.
Typically, RAW cells were plated at 0.25 x 10^6 cells per well of a 24-well plate, in 0.5 mL media per well on the day prior to experimentation. […] 1%. Drugs were co-administered with the stimulant, LPS. After a 6-hr incubation period with LPS ± drug (n = 3-4), the media from the experimental wells was harvested, the cells were removed by microcentrifugation, and the media assayed for TNF by ELISA. Drugs were screened at 10 µM for their ability to alter TNF production by cells stimulated with 1 µg/mL or 10 ng/mL LPS. Dexamethasone, an anti-inflammatory corticosteroid, served as the reference for inhibition of the LPS response.

The subject of another data set is IL-1α. As to the kind of experiment: LPS-stimulated IL-1α production by THP-1 cells. The class given is cell-based, human. As for the experimental part: as §1
A further data set concerns IL-1β. As to the kind of experiment: LPS-stimulated IL-1β production by THP-1 cells. The format is cell-based, human. As to the method:
as §1

A further data set relates to THP-1 cells. Briefly: MTT assay of THP-1 cell viability. As for the experimental part:
as §1
On the technique in general: Tetrazolium dyes change colour on reduction, which living cells bring about.

Another data set deals with TNF mRNA. Briefly: TPA-induced TNF mRNA expression in hairless mouse skin (RT-PCR). As to conditions: verapamil 4% w/v in ethanol, topical; 3 hour time point; p < 0.01. The format is in vivo.
Data set [3] relates to hairless mice. As to the kind of experiment: DNCB-induced contact hypersensitivity in hairless mice, ear swelling. The format is in vivo, mouse. As to the method: Similar to what has been commonly reported by other investigators, the specific protocol used in these studies involved the application of DNCB (in an acetone:olive oil 4:1 vehicle) to the skin on the posterior portion of the back of hairless mice. Five days later, DNCB was applied to the dorsal surface of the ears. At the indicated time point, the mice were euthanized, ear thickness was measured, and the samples were processed for either RNA extraction, protein analysis, or histology.
Experiments were carried out in an effort to inhibit the DNCB-induced immune reaction with various drugs. […] The left ear was similarly treated with vehicle.
The ability of amiloride to suppress DNCB-induced ear swelling was also examined. In these experiments, mice were sensitized with DNCB, and, five days later, amiloride (2% w/v in 70% propylene glycol: 30% ethanol) was applied to the right ear and vehicle to the left ear 30 minutes and 8 hours after DNCB challenge.

Another data set relates to mice. Briefly: Skin inflammation induced by 2% sodium lauryl sulfate (SLS) in mice. The class given is in vivo. As to conditions: 2% SLS with near saturated verapamil. As for the experimental part: Following the 24 hour exposure, the Hilltop chambers were removed and, after 18 hours, skin thickness readings were taken. […] Table
The test system of a further data set is humans. As to the kind of experiment: Skin inflammation models in humans (2% sodium laurel sulfate or 5% nickel sulfate, 24 hour patch test). The format is in vivo. As to the method: Human skin inflammation was elicited by either 2% sodium laurel sulfate in normal volunteers (irritant contact dermatitis) or by 5% nickel sulfate in nickel-sensitive individuals (allergic contact dermatitis) using a 24 hour patch test. Following the elicitation, either topical verapamil formulation or a placebo formulation was applied three times daily for two consecutive days on two respective sites. At the end of the two-day topical treatment, the degree of skin inflammation (i.e., erythema, edema and blister formation was assessed by a trained dermatologist. Skin biopsies were taken from the placebo and the active sites and analyzed for skin thickness and TNF levels using immunohistochemical techniques.

The test system of another data set is KC mRNA. As to the kind of experiment: TPA-induced KC mRNA expression in hairless mouse skin (RT-PCR). As to conditions: verapamil 4% w/v topical; 3 hour; one of three mice; p = 0.04.
Data set [4] has as its system TNF production. Briefly: Inhibition of TPA-stimulated TNF production in human epidermal keratinocytes (ELISA). The class given is cell-based.
Data set [5] deals with hairless mice. As for the experimental part:
In addition to assessing the cytokine mRNA levels, the time course of the TPA-induced increase in skin thickness was also evaluated. This measurement was made with a micrometer using skin excised from euthanized mice. […] Further increases were typically seen 8 hours with this response being maintained through the 24 hour time point.
Three of the mice were euthanized at the 3 hour time point, and the treated sites were analyzed for TNF mRNA by RT-PCR. The fourth mouse was euthanized at a 24 hour time point, and the thickness of the treated areas of skin was measured using a micrometer.
At the 8 hours time point, the mice were euthanized, the treated areas of skin were excised, and the thickness of the skin was measured using a micrometer.

[6] abbreviates: Mus musculus, RAW cells, DRUG [10 µM], LPS at 10 ng/mL.

Turning to `COc1ccc(CCN(C)CCCC(C#N)(c2ccc(OC)c(OC)c2)C(C)C)cc1OC` (racemic) [(±)-Verapamil, verapamil], the activity at 10 µM worked out at 46 ± 9% in the data set with TNF production [1] (THP-1, 6 h) and 36 ± 1% with TNF production [2] (setting [6]). In addition, the inhibition at 10 µM with TNF production [1] (THP-1, read-out: inhibition of TNF production) was 54%. The inhibition at 0.05 µg/mL in the data set on IL-1α (Homo sapiens, THP-1, 16 h, read-out: inhibition of IL-1α levels) is 40 to 50%; with IL-1β (Homo sapiens, THP-1, 16 h, read-out: inhibition of IL-1β levels) it was approximately 33%. Moreover, the “THP-1 cell viability (MTT assay)” value in the data set on THP-1 cells (highest dose tested) is listed as “did not impact”. The “skin TNF mRNA levels compared to TPA alone” value in the data set on TNF mRNA is given as “significant reduction”. In the data set on hairless mice [3] (verapamil 4% w/v topical, initial experiment), the “swelling of the ear after DNCB challenge” value is “some suppression”. In addition, in the data set with hairless mice [3] (verapamil 5% w/v topical, n = 6, repeated experiment), the “ear swelling after DNCB challenge” value is “significantly reduced”. Further, in the data set on mice (24 hours occlusion, read 18 hours after removal (2% SLS alone 1.23, untreated 0.59)), the “Skin Thickness (mm, n = 4)” value is 0.65 ± 0.09 mm. Also, the “Visual Observation” value with mice (24 hours under occlusion) is listed as “Normal”. For the same compound, the “patients in whom dermatitis resolved faster on treated sites” value in the data set on humans (challenged with 2% sodium laurel sulfate) was 2 out of 3. The “patients with skin thickness less on treated sites than placebo sites” value in the data set with humans (topical verapamil three times daily for two days) was 4 out of 6. Besides, the “patients with less TNF in the skin biopsies than placebo sites” value in the data set on humans (topical verapamil three times daily for two days, immunohistochemistry) was 4 out of 6. Further, the “KC mRNA levels” value in the data set with KC mRNA is given as “significant suppression”.

As to `CN(C)C(=O)C(CCN1CCC(O)(c2ccc(Cl)cc2)CC1)(c1ccccc1)c1ccccc1` [Loperamide, 4-(p-chlorophenyl)-4-hydroxy-N,N-dimethyl-α, α-diphenyl-1-piperidine butyramide HCL], the activity at 10 µM in the data set on TNF production [1] (THP-1, 6 h) is 42 ± 22%; in the data set with TNF production [2] (Mus musculus) it was 62 ± 32%. Moreover, the inhibition at 10 µM in the data set with TNF production [1] (THP-1, read-out: inhibition of TNF production, LPS-stimulated THP-1 cells, drug 10 µM) is approximately 42%; in the data set on TNF production [2] (Mus musculus, RAW264.7, read-out: inhibition of LPS-stimulated TNF secretion) it was 62%. For the same compound, in the data set with TNF production [2] (RAW cells), the “effectiveness against LPS-stimulated TNF production (in words)” value is recorded as “lowering of TNF levels”. The “effect on TPA-stimulated levels of TNF (in words)” value with TNF production [4] (human keratinocytes, TPA 10 ng/mL, drug 10 µM) is given as “very effective”. The “THP-1 cell viability (MTT assay)” value with THP-1 cells (highest dose tested) is “did not impact”. The skin thickness with hairless mice [5] (TPA + loperamide 7.5% solution topical, 8 hour, first experiment (vehicle 0.36 mm, TPA 0.56 mm)) was 0.39 mm; in the data set on hairless mice [5] (TPA + loperamide topical, second experiment (vehicle 0.39 mm, TPA 0.89 mm), p<0.01 vs. TPA alone), 0.57 mm. In addition, the “thickness of skin treated with drug alone compared to vehicle-treated skin” value in the data set with hairless mice [5] (loperamide 7.5% alone, no TPA) is “unchanged”. Besides, the “inhibition of the TPA-induced swelling response” value in the data set with hairless mice [5] (loperamide topical, second experiment) was 64%. For the same compound, the “TPA-induced increase in skin thickness / swelling response (in words)” value in the data set with hairless mice [5] (topical application, loperamide: 8 hour time point, first experiment) is listed as “completely inhibit”.

As to `N=C(N)NC(=O)c1nc(Cl)c(N)nc1N` [Amiloride, amiloride], the activity at 10 µM with TNF production [1] (6 h, THP-1 cells, DRUG [10 µM], LPS 1 µg/mL) is 56 ± 15%; with TNF production [2] (setting [6]) it was 75 ± 25%; in the data set on TNF production [4] (Homo sapiens, epidermal keratinocytes, HEK cells, DRUG [10 µM], stimulation by TPA 10 ng/mL, read-out: TNF LEVEL % Control (LPS alone), Ave. ± S.D.) it was not below 100%. For the same compound, the inhibition at 10 µM in the data set with TNF production [1] (LPS-stimulated THP-1 cells, drug 10 µM, read-out: inhibition of TNF production) worked out at 40%. The “effectiveness against LPS-stimulated TNF production (in words)” value with TNF production [1] (LPS-stimulated THP-1 cells, 10 µM) was “comparatively more effective”; in the data set on TNF production [2] (RAW cells), “moderately effective”. Further, the “IC50 value (50% of the maximal inhibition, as defined by effects at 10 µM)” value in the data set with TNF production [1] (LPS-stimulated TNF production, THP-1 cells) is “within the same range”. In the data set with IL-1α (THP-1 cells, 10 µM), the “level of cell-associated and secreted IL-1α (in words)” value is “reduce the level”. Also, in the data set on IL-1β (THP-1 cells, 10 µM), the “level of cell-associated and secreted IL-1β (in words)” value is listed as “reduce the level”. Besides, the “THP-1 cell viability (MTT assay)” value with THP-1 cells is reported as “did not impact”. The “ear thickness, % of pre-challenge values” in the data set with hairless mice [3] (DNCB + amiloride 2% w/v topical (DNCB alone 135%), p < 0.002) came out at 113%.
